Test results: ChEMBL document CHEMBL1201862, “PubChem BioAssay data set” (2004)
The source made the active and inactive calls.

How the values were obtained:
Mu-type opioid receptor = Mu-type opioid receptor (Homo sapiens, UniProt P35372); format: functional, cell-based;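 also: U2OS cells with beta-arrestin recruitment to OPRM1 by beta-gal complementation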
[1] = molecular target: 5-hydroxytryptamine receptor 2A (Mus musculus, UniProt P35363); format: functional, cell-based;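 also: CHO-K1 cells with tagged receptor and beta-arrestin; agonist potency measured as compound-induced activation of the receptor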
H9c2 = assay: cells; format: functional, cell-based; settings: Rattus norvegicus, H9c2, Myocardium;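 also: confirmatory concentration-response retest of ultra-high-throughput screening hits for modulation of myocardial damage; cell death induced by hydrogen peroxide oxidative stress; compound pretreatment for 60 min then peroxide exposure for 2 h; potency is for protecting the cells against peroxide damage rather than for killing them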
Albumin = Albumin (Bos taurus, UniProt P02769); assay: Counterscreen for inhibitors of T-cell receptor (TCR)-CD3 interaction: Fluorescence-based biochemical high throughput dose response assay to identify inhibitors of T-cell receptor (TCR)-CD3 interaction using a TAMRA-labeled BSA probe.; format: functional
[2] = molecular target: Heat shock protein HSP 90-alpha (Homo sapiens, UniProt P07900); format: functional, organism-based
[3] = molecular target: T1, Heat shock factor protein 1 (Mus musculus, UniProt P38532); assay: enhancement of HSF1-driven luciferase signal – cell-based, NIH3T3, luminescence, dose retest, confirmation (AID 435004); format: functional;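 also: stress induced by proteasome inhibitor MG132 added 30 min after compound; luciferase reporter driven by HSF1 response element in NIH3T3 cells; actives raise luminescence as potentiators of the MG132 stress response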
T1 sequence (P38532 whole entry): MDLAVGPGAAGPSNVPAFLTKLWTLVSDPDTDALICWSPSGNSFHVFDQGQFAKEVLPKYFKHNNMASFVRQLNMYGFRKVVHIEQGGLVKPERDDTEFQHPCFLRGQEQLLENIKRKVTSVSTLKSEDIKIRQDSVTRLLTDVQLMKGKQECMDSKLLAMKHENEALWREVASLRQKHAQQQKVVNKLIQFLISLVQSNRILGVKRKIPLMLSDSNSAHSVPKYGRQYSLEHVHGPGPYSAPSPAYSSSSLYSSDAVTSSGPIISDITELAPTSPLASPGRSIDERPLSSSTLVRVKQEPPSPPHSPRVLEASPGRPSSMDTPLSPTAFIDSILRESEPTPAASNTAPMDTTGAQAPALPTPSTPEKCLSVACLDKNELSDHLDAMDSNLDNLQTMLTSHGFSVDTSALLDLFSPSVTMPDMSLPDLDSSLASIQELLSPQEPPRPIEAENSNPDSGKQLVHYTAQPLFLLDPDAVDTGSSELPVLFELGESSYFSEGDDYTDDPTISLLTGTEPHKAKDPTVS

Vero = assay: cells; format: functional; settings: Chlorocebus sabaeus
[4] = Dd2 malaria parasite growth inhibition potency – SYBR Green, dry powder samples, dose response (AID 1159566); format: functional, cell-based;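 also: potency for growth inhibition with lower SYBR green DNA signal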
[5] = growth inhibition of yeast DHODH-expressing 3D7 parasites – SYBR Green, dry powder samples, dose response (AID 1159570); format: functional, cell-based;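 also: parasite growth measured after 72 hours of compound exposure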
[6] = growth inhibition of PfATP4-mutant resistant parasites – NITD609-resistant line, SYBR Green, dry powder, dose response (AID 1159571); format: functional, cell-based;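 also: parasites synchronized at ring stage by sorbitol before testing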
[7] = P. falciparum Dd2 growth inhibitors, dose response, SYBR Green, cherry-picked samples (AID 1159567); format: functional, cell-based
[8] = Dd2 parasite growth inhibition in erythrocytes – SYBR Green, dry powder samples, set 9, dose response (AID 1159568); format: functional, cell-based
[9] = viability loss in THP-1 monocytes – THP-1 cells, cytotoxicity control for Vif-APOBEC3G degradation inhibitor project, dose response (AID 1117359); format: functional; settings: THP-1
[10] = molecular target: T2, RNA-binding protein pos-1 (Caenorhabditis elegans, UniProt G5EF15); assay: disruptors of C. elegans POS-1 RNA interaction – biochemical, fluorescence polarization, dose response (AID 1964);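 also: purified POS-1 fused to maltose binding protein made in E. coli; potency of compounds blocking POS-1 binding to fluorescent RNA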
T2 sequence (G5EF15 whole entry): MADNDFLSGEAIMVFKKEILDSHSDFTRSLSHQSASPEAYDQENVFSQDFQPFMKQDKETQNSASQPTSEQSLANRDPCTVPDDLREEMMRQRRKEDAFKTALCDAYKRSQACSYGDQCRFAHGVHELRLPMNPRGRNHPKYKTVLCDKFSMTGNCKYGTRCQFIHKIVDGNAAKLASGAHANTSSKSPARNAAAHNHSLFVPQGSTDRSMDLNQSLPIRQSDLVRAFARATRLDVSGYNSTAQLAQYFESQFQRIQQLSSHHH

[11] = molecular target: T3, Zinc finger protein mex-5 (Caenorhabditis elegans, UniProt Q9XUB2); assay: potency of MEX-5 RNA-binding blockers – biochemical, C. elegans, fluorescence polarization, dose response (AID 1960)
T3 sequence (Q9XUB2 whole entry): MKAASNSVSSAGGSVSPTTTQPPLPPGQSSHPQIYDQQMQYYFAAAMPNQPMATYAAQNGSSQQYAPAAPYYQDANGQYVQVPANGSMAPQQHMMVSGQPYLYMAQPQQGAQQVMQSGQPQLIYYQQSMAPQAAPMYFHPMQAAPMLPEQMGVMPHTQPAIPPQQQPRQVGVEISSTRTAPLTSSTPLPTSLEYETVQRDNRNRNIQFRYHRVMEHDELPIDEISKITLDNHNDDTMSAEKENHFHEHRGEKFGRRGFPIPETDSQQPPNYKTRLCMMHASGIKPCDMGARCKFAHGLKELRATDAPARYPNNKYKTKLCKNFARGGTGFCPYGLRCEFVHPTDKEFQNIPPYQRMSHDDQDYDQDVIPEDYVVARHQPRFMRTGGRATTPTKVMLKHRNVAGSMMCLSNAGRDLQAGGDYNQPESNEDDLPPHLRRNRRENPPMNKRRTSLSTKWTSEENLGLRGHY

Paired box protein Pax-8 = Paired box protein Pax-8 (Homo sapiens, UniProt Q06710); assay: PAX8 transcriptional activity inhibition in RMG-I – RMG-I cells, luciferase, cherry-pick, dose response (AID 687027); format: functional, cell-based;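 also: luciferase reporter driven by Pax8 target thyroperoxidase promoter measured by SteadyGlo luminescence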
HEK293 [12] = assay: cells; settings: Homo sapiens
HEK293 [13] = assay: cells; settings: Homo sapiens; remark: listed apart in the source
Cytochrome P450 2C9 = Cytochrome P450 2C9 (Homo sapiens, UniProt P11712)
Cytochrome P450 2C9, sequence (P11712 whole entry): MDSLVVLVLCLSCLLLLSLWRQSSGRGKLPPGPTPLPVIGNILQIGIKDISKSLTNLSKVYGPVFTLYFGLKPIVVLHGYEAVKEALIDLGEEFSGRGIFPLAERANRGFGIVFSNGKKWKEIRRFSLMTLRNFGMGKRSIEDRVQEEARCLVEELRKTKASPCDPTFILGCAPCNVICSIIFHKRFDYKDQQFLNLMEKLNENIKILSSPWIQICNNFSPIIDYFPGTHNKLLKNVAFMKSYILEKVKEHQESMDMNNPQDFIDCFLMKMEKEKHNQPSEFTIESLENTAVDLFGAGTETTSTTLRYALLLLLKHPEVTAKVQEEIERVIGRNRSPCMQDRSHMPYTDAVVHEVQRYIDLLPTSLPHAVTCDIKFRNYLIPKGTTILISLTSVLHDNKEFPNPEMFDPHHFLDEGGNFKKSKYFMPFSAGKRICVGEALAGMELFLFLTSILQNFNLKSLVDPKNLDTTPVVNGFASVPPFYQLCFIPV

Mu-type opioid receptor, sequence (P35372 whole entry): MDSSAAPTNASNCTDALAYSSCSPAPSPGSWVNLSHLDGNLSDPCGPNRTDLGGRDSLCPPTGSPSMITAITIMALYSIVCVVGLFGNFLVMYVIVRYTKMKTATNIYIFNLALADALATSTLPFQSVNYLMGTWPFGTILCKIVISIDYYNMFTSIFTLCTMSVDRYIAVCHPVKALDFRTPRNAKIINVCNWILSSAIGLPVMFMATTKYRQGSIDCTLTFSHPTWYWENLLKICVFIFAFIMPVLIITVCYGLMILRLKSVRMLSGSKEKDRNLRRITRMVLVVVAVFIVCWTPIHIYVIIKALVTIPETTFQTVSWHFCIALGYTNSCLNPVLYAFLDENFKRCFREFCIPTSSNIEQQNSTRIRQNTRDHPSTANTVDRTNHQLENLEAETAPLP
5-hydroxytryptamine receptor 2A, sequence (P35363 whole entry): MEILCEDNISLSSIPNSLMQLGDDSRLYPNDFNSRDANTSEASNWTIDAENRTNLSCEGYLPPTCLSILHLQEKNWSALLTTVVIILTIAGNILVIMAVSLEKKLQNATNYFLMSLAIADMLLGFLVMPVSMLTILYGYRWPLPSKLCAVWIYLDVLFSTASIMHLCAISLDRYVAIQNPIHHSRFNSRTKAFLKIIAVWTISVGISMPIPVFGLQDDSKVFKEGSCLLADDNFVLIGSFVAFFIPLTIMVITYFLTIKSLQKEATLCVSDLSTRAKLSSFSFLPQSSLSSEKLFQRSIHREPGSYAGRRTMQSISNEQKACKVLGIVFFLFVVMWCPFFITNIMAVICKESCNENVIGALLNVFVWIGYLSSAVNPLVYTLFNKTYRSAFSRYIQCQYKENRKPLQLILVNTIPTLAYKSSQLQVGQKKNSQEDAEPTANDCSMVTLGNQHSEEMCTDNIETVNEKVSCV
Albumin, sequence (P02769 whole entry): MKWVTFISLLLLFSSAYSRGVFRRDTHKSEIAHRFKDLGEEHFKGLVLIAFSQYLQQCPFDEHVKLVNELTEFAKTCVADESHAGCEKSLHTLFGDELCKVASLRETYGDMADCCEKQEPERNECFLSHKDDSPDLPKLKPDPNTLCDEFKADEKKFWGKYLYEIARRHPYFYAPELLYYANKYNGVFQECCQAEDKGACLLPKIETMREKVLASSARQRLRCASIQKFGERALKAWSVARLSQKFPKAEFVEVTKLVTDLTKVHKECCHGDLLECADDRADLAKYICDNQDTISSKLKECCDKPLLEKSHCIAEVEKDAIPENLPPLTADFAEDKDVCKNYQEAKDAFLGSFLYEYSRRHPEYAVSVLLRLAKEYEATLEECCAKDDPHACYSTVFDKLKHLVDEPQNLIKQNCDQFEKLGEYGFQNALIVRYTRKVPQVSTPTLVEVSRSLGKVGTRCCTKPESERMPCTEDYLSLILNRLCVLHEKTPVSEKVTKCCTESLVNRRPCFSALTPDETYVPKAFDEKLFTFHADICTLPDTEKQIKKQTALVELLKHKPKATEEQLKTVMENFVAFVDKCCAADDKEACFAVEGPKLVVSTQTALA
Paired box protein Pax-8, sequence (Q06710 whole entry): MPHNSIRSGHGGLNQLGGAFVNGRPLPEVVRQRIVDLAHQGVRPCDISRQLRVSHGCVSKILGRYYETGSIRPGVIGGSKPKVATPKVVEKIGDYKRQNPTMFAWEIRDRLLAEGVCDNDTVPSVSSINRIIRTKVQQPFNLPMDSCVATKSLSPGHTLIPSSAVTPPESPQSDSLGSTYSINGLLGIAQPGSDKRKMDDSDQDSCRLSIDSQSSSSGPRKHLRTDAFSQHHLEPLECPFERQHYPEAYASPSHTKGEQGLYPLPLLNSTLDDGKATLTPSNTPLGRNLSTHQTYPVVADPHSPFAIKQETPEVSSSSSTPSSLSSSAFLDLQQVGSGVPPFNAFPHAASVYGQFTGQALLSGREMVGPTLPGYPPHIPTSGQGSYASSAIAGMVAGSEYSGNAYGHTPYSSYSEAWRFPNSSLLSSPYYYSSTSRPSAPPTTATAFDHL

COc1cc(CN2CCN(c3ncccn3)CC2)cc(OC)c1
EC50 (Mu-type opioid receptor): 92.4 µM (inactive)
EC50 [1]: 0.384 µM (active)

COc1ccc(N(CC(=O)Nc2cccc(C(C)=O)c2)S(=O)(=O)c2ccc(NC(C)=O)cc2)cc1
IC50 (H9c2): > 79 µM (inactive)

Cc1ccccc1CN1CCN(C(=O)c2ccco2)CC1
EC50 (Mu-type opioid receptor): 92.5 µM (inactive)
EC50 [1]: 4.89 µM (active)

CCNC(=O)/C(C#N)=C/c1c(N(Cc2ccccc2)Cc2ccccc2)nc2ccccn2c1=O
IC50 (H9c2): > 79 µM (inactive)

c1ccc(COc2ccc(CN3CCN(c4ccccn4)CC3)cc2)cc1
EC50 (Mu-type opioid receptor): 92.5 µM (inactive)
EC50 [1]: 0.054 µM (active)

Cc1cccc(NC(=O)COc2cccc3c2CCNC3=O)c1
IC50 (H9c2): > 79 µM (inactive)

Cc1ccc(O)c(/C=N/NC(=O)COc2ccc3c(C)cc(=O)oc3c2)c1
IC50 (Albumin): > 94.1 µM (inactive)

O=C(N/N=C/c1ccccn1)c1cc(-c2ccc(Br)cc2)nc2ccccc12
AC50 [2]: 2.24 µM (active)
EC50 [3]: 4.85 µM (active)
CC50 (Vero): 9.94 µM (active)

C[C@@H]1CN([C@H](C)CO)C(=O)c2cccc(NC(=O)c3nc4ccccc4s3)c2O[C@H]1CN(C)C(=O)Nc1ccc(C(F)(F)F)cc1
AC50 [4]: 1.08 µM (active)
AC50 [5]: 1.18 µM (active)
AC50 [6]: 0.816 µM (active)
AC50 [7]: 2.06 µM (active)

COc1ccc([C@H]2C/C=C/C[C@H](C)Oc3ccccc3C(=O)N(C)[C@@H](Cc3ccccc3)C(=O)N2)c(OC)c1.COc1ccc([C@H]2C/C=C\C[C@H](C)Oc3ccccc3C(=O)N(C)[C@@H](Cc3ccccc3)C(=O)N2)c(OC)c1
AC50 [8]: 1.58 µM (active)

C[C@@H]1CCCCO[C@H](CN(C)S(=O)(=O)c2ccc(F)cc2)[C@H](C)CN([C@H](C)CO)C(=O)c2cc(N(C)C)ccc2O1
AC50 [8]: 4.45 µM (active)

CS(=O)(=O)N1[C@H](C#N)[C@H](c2ccc(C#Cc3cccc(F)c3)cc2)[C@H]1CO
AC50 [8]: 10.1 µM (active)

c1ccc2c(c1)NCC1CCCN21 (configuration not stated)
CC50 [9]: > 40 µM (active)

Cn1cc(C2=C(c3ccc(Cl)cc3Cl)C(=O)NC2=O)c2ccccc21 [SB-216763]
EC50 [10]: 26 µM (active)
EC50 [11]: 21.5 µM (inconclusive)
AC50 (Paired box protein Pax-8): 4.61 µM (active)
EC50 (HEK293 [12]): > 59.6 µM (inactive)
EC50 (HEK293 [13]): > 59.6 µM (inactive)
AC50 (Cytochrome P450 2C9): 31.6 µM (inconclusive)
